Patent US5075335A, “Guanidinobenzoic ester derivative” (Eisai Co., Ltd., priority 1985, dated 1991)

Experiments:
Type in all cases: biochemical
thrombin = thrombin (Homo sapiens, UniProt P00734); assay: Thrombin inhibition in vitro (substrate H-D-Phe-L-pipecolyl-L-Arg-p-nitroanilide dihydrochloride); conditions: read-out: 50% Inhibitory concentration (IC50) Thrombin
Experimental: (§1) The effects of typical compounds of the present invention in inhibiting trypsin, plasmin and thrombin in vitro were examined. The trypsin-inhibiting effect was represented in terms of a molar concentration of the compound which inhibits the activity of 0.5 μg/ml of trypsin to hydrolyze benzoyl-D,L-arginine-p-nitroanilide hydrochloride by 50% at 25° C. In the determination of the plasmin- and thrombin-inhibiting effects, 50% inhibitory concentrations were determined by using H-D-Val-Leu-L-Lys-p-nitroanilide dihydrochloride and H-D-Phe-L-pipecolyl-L-Arg-p-nitroanilide dihydrochloride, respectively, as the substrate.

plasmin = plasmin (Homo sapiens, UniProt P00747); assay: Plasmin inhibition in vitro (substrate H-D-Val-Leu-L-Lys-p-nitroanilide dihydrochloride); conditions: read-out: 50% Inhibitory concentration (IC50) Plasmin
Experimental: as §1

trypsin = assay: Trypsin inhibition in vitro (hydrolysis of benzoyl-D,L-arginine-p-nitroanilide hydrochloride); conditions: 0.5 μg/ml of trypsin, 25° C, read-out: 50% Inhibitory concentration (IC50) Trypsin
Experimental: as §1

plasmin, sequence (P00747 581-810 limits assumed, species assumed): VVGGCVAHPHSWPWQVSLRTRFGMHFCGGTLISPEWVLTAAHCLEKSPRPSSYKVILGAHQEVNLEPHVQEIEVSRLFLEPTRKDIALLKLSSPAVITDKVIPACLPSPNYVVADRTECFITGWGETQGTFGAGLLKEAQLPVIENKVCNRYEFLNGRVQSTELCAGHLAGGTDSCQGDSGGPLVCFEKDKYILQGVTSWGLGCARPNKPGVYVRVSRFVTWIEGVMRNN
plasmin, sequence (P00747 97-580 partner limits assumed, species assumed): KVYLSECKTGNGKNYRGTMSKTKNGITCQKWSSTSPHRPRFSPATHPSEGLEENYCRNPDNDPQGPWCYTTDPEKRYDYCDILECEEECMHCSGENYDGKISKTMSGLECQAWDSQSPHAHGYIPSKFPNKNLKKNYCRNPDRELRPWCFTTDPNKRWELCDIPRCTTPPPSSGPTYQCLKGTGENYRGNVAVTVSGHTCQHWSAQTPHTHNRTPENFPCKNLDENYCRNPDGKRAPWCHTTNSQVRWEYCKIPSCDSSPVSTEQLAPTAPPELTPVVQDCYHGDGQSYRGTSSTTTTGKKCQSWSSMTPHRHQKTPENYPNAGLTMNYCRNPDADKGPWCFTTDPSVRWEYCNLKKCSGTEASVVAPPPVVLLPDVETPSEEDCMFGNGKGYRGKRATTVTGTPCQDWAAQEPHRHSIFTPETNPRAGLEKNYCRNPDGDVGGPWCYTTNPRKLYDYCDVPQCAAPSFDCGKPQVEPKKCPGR

Compound	IC50 (thrombin) [nM]	IC50 (plasmin) [nM]	IC50 (trypsin) [nM]
N=C(N)Nc1ccc(C(=O)Oc2ccc(SCCCCN3C(=O)CCC3=O)cc2)cc1 [E, 4-(4-succinimidobutylthio)phenyl 4-guanidinobenzoate methanesulfonate]	570	2300	22
N=C(N)Nc1ccc(C(=O)Oc2ccc(SCCCCCN3C(=O)CCC3=O)cc2)cc1 [F, 4-(5-succinimidopentylthio)phenyl 4-guanidinobenzoate methanesulfonate]	270	640	34
N=C(N)Nc1ccc(C(=O)Oc2ccc(SCCN3C(=O)[C@H]4CCCC[C@H]4C3=O)cc2)cc1 [G, 4-[2-(cis-1,2-cyclohexanedicarboxyimido)-ethylthio]phenyl 4-guanidinobenzoate methanesulfonate]	160	1000	62
N=C(N)Nc1ccc(C(=O)Oc2ccc(SCCN3C(=O)c4ccccc4C3=O)cc2)cc1 [H, 4-(2-phthalimidoethylthio)phenyl 4-guanidinobenzoate methanesulfonate]	110	920	30

Continued, values first:

IC50 (thrombin) [nM]	IC50 (plasmin) [nM]	IC50 (trypsin) [nM]	Compound
250	1300	43	N=C(N)Nc1ccc(C(=O)Oc2ccc(SCCO)cc2)cc1 [A, 4-(2-hydroxyethylthio)phenyl 4-guanidinobenzoate methanesulfonate]
530	950	47	N=C(N)Nc1ccc(C(=O)Oc2ccc(SCCN3C(=O)CCC3=O)cc2)cc1 [B, 4-(2-succinimidoethylthio)phenyl 4-guanidinobenzoate methanesulfonate]
350	2200	45	CCOCCSc1ccc(OC(=O)c2ccc(NC(=N)N)cc2)cc1 [C, 4-(2-ethoxyethylthio)phenyl 4-guanidinobenzoate methanesulfonate]
420	1300	59	N=C(N)Nc1ccc(C(=O)Oc2ccc(SCCCN3C(=O)CCC3=O)cc2)cc1 [D, 4-(3-succinimidopropylthio)phenyl 4-guanidinobenzoate methanesulfonate]
320	830	55	CC1(C)OC(=O)N(CCSc2ccc(OC(=O)c3ccc(NC(=N)N)cc3)cc2)C1=O [I, 4-[2-(5,5-dimethyl-2,4-dioxooxazolidin-3-yl)ethylthio]phenyl 4-guanidinobenzoate methanesulfonate]
